ChEMBL document CHEMBL1142782, “Inhibition of tumor cell proliferation by thieno[2,3-d]pyrimidin-4(1H)-one-based analogs” (Bioorg Med Chem Lett, 2005)

Tests used:
[1] = test system: HT-29; assay: Inhibitory concentration against human colon tumor cell line HT-29; type: functional, cell-based
[2] = biological target: Cyclin-dependent kinase inhibitor 1 (Homo sapiens) (UniProt P38936); assay: Selectivity ratio between p21(-/-) and p21(+/+) isogenic cell lines; type: functional
[3] = test system: LoVo; assay: Inhibitory concentration against human colon tumor cell line LoVo; type: functional, cell-based
[4] = test system: DLD-1; assay: Inhibitory concentration against human colon tumor cell line DLD1; type: functional, cell-based
[5] = test system: SW-620; assay: Inhibitory concentration against human colon tumor cell line SW620; type: functional, cell-based

Cyclin-dependent kinase inhibitor 1 (Homo sapiens), sequence (P38936 whole entry): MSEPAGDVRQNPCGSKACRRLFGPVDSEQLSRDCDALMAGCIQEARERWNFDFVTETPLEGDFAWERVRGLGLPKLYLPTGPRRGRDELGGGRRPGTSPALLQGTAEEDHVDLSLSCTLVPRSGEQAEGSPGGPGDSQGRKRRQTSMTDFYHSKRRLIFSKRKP

SMILES | IC50 [1] [nM] | Ratio [2] | IC50 [3] [nM] | IC50 [4] [nM] | IC50 [5] [nM]
COc1cc(-c2nc(O)c3c4c(sc3n2)CCCCC4)cc(OC)c1OC | 450 | 8.7 | 170 | 350 | 220
COc1cc(-c2nc(O)c3c4c(sc3n2)CCCC4)cc(OC)c1OC | 240 | > 8.7 | 140 | 280 | 190
CCOc1ccc(-c2nc(O)c3c4c(sc3n2)CCCC4)cc1 | 5000 | > 2.4 | 2600 | 4600 | 5000
COc1ccc(-c2nc(O)c3c4c(sc3n2)CCCC4)cc1 | 330 | > 8.5 | 150 | 290 | 230
COc1ccc(-c2nc(O)c3c4c(sc3n2)CCCC4)c(F)c1 | 420 | 19 | 460 | 220 | 420
O=C(c1cccs1)c1cnn2c(-c3cccc(NC(=O)C4CC4)c3)ccnc12 | – | 30 | – | – | –
COc1cc(-c2nc(O)c3c4c(sc3n2)CCC4)cc(OC)c1OC | 300 | > 5.8 | 130 | 260 | 190
COc1ccc(-c2nc(O)c3c4c(sc3n2)CCC4)cc1 | 330 | 8.3 | 150 | 290 | 230
CSc1ccc(-c2nc(O)c3c4c(sc3n2)CCCC4)cc1 | 1000 | > 4.9 | 430 | 890 | 800
